Experiments:
Assay in all cases: Microtitre plate assay, IC90 determination
Type in all cases: cell-based
Conditions in all cases: 90% inhibitory concentration for bacterial growth
[1] = test system: Enterococcus faecalis (ATCC29212)
Description: (§1) The bacteria used in this study were grown overnight in flasks containing 100 ml Mueller-Hinton Broth (Becton Dickinson—cat. no. 275730) in sterile de-ionized water, with shaking, at 37° C. Stocks (0.5 ml/tube) were stored at −70° C. until use. Bacteria titrations were performed in microtiter plates and colony forming units (CFUs) were determined In general, an inoculum level of approximately 100 CFUs was used for susceptibility testing.
(§2) Flat-bottom, sterile 96-well plastic microtiter plates were filled with 180 μl of sterile deionized water, supplemented with 0.25% BSA. Subsequently, stock solutions (7.8× final test concentration) of compounds were added in 45 μl volumes in column 2. Serial five-fold dilutions (45 μl in 180 μl ) were made directly in the microtiter plates from column 2 to reach column 11. Untreated control samples with (column 1) and without (column 12) inoculum were included in each microtiter plate. Depending on the bacteria type, approximately 10 to 60 CFU per well of bacteria inoculum (100 TCID50), in a volume of 100 μl in 2.8× Mueller-Hinton broth medium, was added to the rows A to H, except column 12. The same volume of broth medium without inoculum was added to column 12 in row A to H. The cultures were incubated at 37° C. for 24 hours under a normal atmosphere (incubator with open air valve and continuous ventilation). At the end of incubation, one day after inoculation, the bacterial growth was quantitated fluorometrically. Therefore resazurin (0.6 mg/ml) was added in a volume of 20 μl to all wells 3 hours after inoculation, and the plates were re-incubated overnight. A change in colour from blue to pink indicated the growth of bacteria. The fluorescence was read in a computer-controlled fluorometer (Cytofluor Biosearch) at an excitation wavelength of 530 nm and an emission wavelength of 590 nm. The % growth inhibition achieved by the compounds was calculated according to standard methods. The IC90 (expressed in μg/ml) was defined as the 90% inhibitory concentration for bacterial growth.

[2] = test system: Escherichia coli (ATCC35218)
Description: as §1, §2

[3] = test system: Pseudomonas aeruginosa (ATCC27853)
Description: as §1, §2

[4] = test system: Staphylococcus aureus (ATCC29213)
Description: as §1, §2

[5] = test system: Streptococcus pneumoniae (ATCC6305)
Description: as §1, §2

[6] = test system: Streptococcus pyogens (ATCC8668)
Description: as §1, §2

[7] = test system: Bacillus subtilis (ATCC43639)
Description: as §1, §2

[8] = test system: Listeria monocytogenes (ATCC49594)
Description: as §1, §2

[9] = test system: Streptococcus mutans (ATCC33402)
Description: as §1, §2

[10] = test system: Enterococcus faecalis (ATCC14506)
Description: as §1, §2

[11] = test system: Staphylococcus aureus (ATCC25923)
Description: as §1, §2

[12] = test system: Staphylococcus aureus (ATCC43300)
Description: as §1, §2

[13] = test system: methicilline resistant Staphylococcus aureus (MRSA) (a clinical isolate from the University of Antwerp)
Description: as §1, §2

[14] = test system: Escherichia coli (ATCC25922)
Description: as §1, §2

Structure (SMILES) | IC90 EFA 29212 [1] [µg/mL] | IC90 PAE 27853 [3] [µg/mL] | IC90 STA 29213 [4] [µg/mL] | IC90 SPN 6305 [5] [µg/mL] | IC90 SPY 8668 [6] [µg/mL] | also measured
COc1nc2ccc(Br)cc2cc1C(c1ccc(Cl)cc1)C(O)(CC[N+](C)(C)C)c1ccccc1.[I-] (single isomer, unassigned) [Compound N] | 1.75 | 9.87 | 1.8 | 1.75 | 1.75 | IC90 ECO 35218 [2]: 17.55 µg/mL
CCCC[N+](C)(C)CCC(O)(c1cccc2ccccc12)C(c1ccccc1)c1cc2cc(Br)ccc2nc1OC.[I-] (single isomer, unassigned) [Compound C] | – | – | 0.4 | – | – | –
CSc1nc2ccc(Br)cc2cc1C(c1ccccc1)C(O)(CCCC[N+](C)(C)C)c1ccccc1.[I-] (single isomer, unassigned) [Compound L] | 2.2 | 2.2 | 2.2 | 2.2 | 0.4 | IC90 BSU 43639 [7]: 2.2 µg/mL; IC90 ECO 35218 [2]: 11 µg/mL; IC90 LMO 49594 [8]: 2.2 µg/mL; IC90 SMU 33402 [9]: 0.4 µg/mL
COc1nc2ccc(Br)cc2cc1C(c1ccccc1)C(O)(CC[N+](C)(C)C)c1ccc2ccccc2c1.[I-] (single isomer, unassigned) [Compound Q] | 1.8 | 4.53 | 1.8 | 1.8 | 1.8 | –
COc1nc2ccc(Br)cc2cc1C(c1ccccc1)C(O)(CC[N+](C)(C)C)c1ccccc1.[I-] (single isomer, unassigned) [Compound 57] | 12.9 | – | 12.9 | 16.3 | 12.9 | IC90 BSU 43639 [7]: 2.6 µg/mL; IC90 EFA 14506 [10]: 12.9 µg/mL; IC90 LMO 49594 [8]: 2.6 µg/mL; IC90 STA 25923 [11]: 12.9 µg/mL; IC90 STA 43300 [12]: 12.9 µg/mL; IC90 SMU 33402 [9]: 12.9 µg/mL; IC90 STA RMETH [13]: 12.9 µg/mL
COc1nc2ccc(Br)cc2cc1C(c1ccccc1)C(O)(CCc1ccccc1)CC[N+](C)(C)C.[I-] (single isomer, unassigned) [E] | – | – | 2.1 | – | – | –
COc1nc2ccc(Br)cc2cc1C(c1ccccc1)C(O)(CC[N+](C)(C)C)c1ccsc1.[I-] (single isomer, unassigned) [Compound M] | – | – | 1.7 | 8.34 | 8.34 | –
COc1nc2ccc(Br)cc2cc1C(c1ccccc1)C(O)(CCC[N+](C)(C)C)c1ccc2ccccc2c1.[I-] (single isomer, unassigned) [Compound S] | 1.85 | 1.85 | 0.4 | 0.47 | 1.85 | –
COc1nc2ccc(Br)cc2cc1C(c1ccccc1)C(O)(CCCC[N+](C)(C)C)c1ccc2ccccc2c1.[I-] (single isomer, unassigned) [Compound H] | – | – | 0.5 | – | – | –
COc1nc2ccc(Br)cc2cc1C(c1ccccc1)C(O)(CCCC[N+](C)(C)C)c1ccccc1.[I-] (single isomer, unassigned) [J] | – | – | 2.1 | – | – | –
COc1nc2ccc(Br)cc2cc1C(c1ccccc1)C(O)(CCc1ccccc1)CC[N+](C)(C)C.[I-] (single isomer, unassigned) [Compound F] | – | – | 2.1 | – | – | –
COc1nc2ccc(Br)cc2cc1C(c1ccccc1)C(O)(CCC[N+](C)(C)C)c1ccc2ccccc2c1.[I-] (single isomer, unassigned) [R] | 1.17 | 2.07 | 0.4 | 0.46 | 0.74 | IC90 ECO 35218 [2]: 9.27 µg/mL
COc1nc2ccc(Br)cc2cc1C(c1ccccc1)C(O)(CC[N+](C)(C)C)c1cccc2ccccc12.[I-] (single isomer, unassigned) [Compound 121] | 2.8 | 13.9 | 0.4 | 3.5 | 3.5 | IC90 BSU 43639 [7]: 2.8 µg/mL; IC90 EFA 14506 [10]: 2.8 µg/mL; IC90 ECO 25922 [14]: 12.4 µg/mL; IC90 LMO 49594 [8]: 0.5 µg/mL; IC90 STA 25923 [11]: 2.2 µg/mL; IC90 STA 43300 [12]: 3.5 µg/mL; IC90 SMU 33402 [9]: 2.8 µg/mL; IC90 STA RMETH [13]: 2.2 µg/mL
COc1nc2ccc(Br)cc2cc1C(c1ccccc1)C(O)(CCCC[N+](C)(C)C)c1ccc2ccccc2c1.[I-] (single isomer, unassigned) [I] | – | – | 2.9 | – | – | –
COc1nc2ccc(Br)cc2cc1C(c1ccccc1)C(O)(CCCC[N+](C)(C)C)c1ccccc1.[I-] (single isomer, unassigned) [Compound K] | – | – | 2.1 | – | – | –
COc1nc2ccc(Br)cc2cc1C(c1ccccc1)C(O)(CCCC[N+]1(C)CCCCC1)c1ccccc1.[I-] (single isomer, unassigned) [Compound U] | 1.86 | 9.33 | 1.9 | 2.09 | 1.86 | –
COc1nc2ccc(Br)cc2cc1C(c1ccccc1)C(O)(CC[N+](C)(C)C)c1ccccc1.[I-] (single isomer, unassigned) [Compound 10] | 5.8 | – | 14.5 | 16.3 | 1.3 | IC90 BSU 43639 [7]: 10.3 µg/mL; IC90 EFA 14506 [10]: 12.9 µg/mL; IC90 LMO 49594 [8]: 1.2 µg/mL; IC90 STA 25923 [11]: 11.5 µg/mL; IC90 STA 43300 [12]: 5.8 µg/mL; IC90 SMU 33402 [9]: 10.3 µg/mL; IC90 STA RMETH [13]: 8.2 µg/mL
CSc1nc2ccc(Br)cc2cc1C(c1ccccc1)C(O)(CC[N+](C)(C)C)c1ccccc1.[I-] (single isomer, unassigned) [Compound T] | 3.8 | 8.5 | 1.7 | 1.7 | 1.7 | –
COc1nc2ccc(Br)cc2cc1C(c1ccccc1)C(O)(CCC[N+](C)(C)C)c1cccc2ccccc12.[I-] (single isomer, unassigned) [Compound G] | – | – | 0.4 | – | – | –
COc1nc2ccc(Br)cc2cc1C(c1ccccc1)C(O)(CC[N+](C)(C)C)c1cccc(F)c1.[I-] (single isomer, unassigned) [Compound O] | 8.53 | – | 1.9 | 1.7 | 1.7 | –

Source: US20100197727A1, “Quinoline Derivatives as Antibacterial Agents” (priority 2005, published 2010)
